In patent US11040033B2 (Gilead Sciences, Inc., priority 2017, dated 2021):

Target: T1, IDO1 (Homo sapiens, UniProt P14902)
T1 construct: HeLa cells were treated with a test compound in the presence of IFNγ, which induces IDO1 expression; endogenous in cells; host or cells: H1-HeLa cells (ATCC #CRL-1958), induced with IFNγ
Assay: Cell-based (HeLa) assay for measurement of IDO1 inhibition (kynurenine levels in supernatant after IFNγ induction)
Conditions: H1-HeLa cells, IFNγ-induced IDO1, 48 hour incubation, kynurenine absorbance at 480 nm; geometric mean of a minimum of four determinations
In short: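 HeLa cells (1,250/well, DMEM/10% FBS) exposed to compound (0.5% DMSO) with IFNγ (added as 50 ng/mL solution) for 48 h. Supernatant kynurenine measured after TCA treatment (60 °C, 30 min) with p-dimethylaminobenzaldehyde, A480. EC50 from four-parameter fit normalised to ±IFNγ controls; geometric mean of ≥4 runs.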

T1 sequence (P14902 whole entry): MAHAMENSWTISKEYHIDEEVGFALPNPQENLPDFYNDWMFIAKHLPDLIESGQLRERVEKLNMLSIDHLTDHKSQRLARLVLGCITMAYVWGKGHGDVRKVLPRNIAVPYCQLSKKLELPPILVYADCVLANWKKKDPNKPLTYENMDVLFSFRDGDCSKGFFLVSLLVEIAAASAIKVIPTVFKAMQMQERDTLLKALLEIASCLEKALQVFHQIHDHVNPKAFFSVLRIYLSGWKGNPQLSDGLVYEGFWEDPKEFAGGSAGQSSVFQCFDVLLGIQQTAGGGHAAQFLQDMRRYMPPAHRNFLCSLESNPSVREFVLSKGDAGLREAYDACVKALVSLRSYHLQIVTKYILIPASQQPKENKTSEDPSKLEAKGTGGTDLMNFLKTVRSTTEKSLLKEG

EC50: 57.9 nM
Compound: O=C(Nc1ccc(F)cc1)c1cc(-c2cccn3c(-c4cccc(F)c4F)ncc23)ncc1C(F)(F)F [Example 28, 2-(3-(2,3-difluorophenyl)imidazo[1,5-a]pyridin-8-yl)-N-(4-fluorophenyl)-5-(trifluoromethyl)isonicotinamide]
